# Values joined by “and” are separate entries in the source; they are usually repeats but may differ in a detail not shown here. Equal entries are not always repeated. Where two headings read alike, the source gives them in different places.
# Tests used:
# [1] = target: T1, p-hTM8-p-CFTR (pig CFTR, three TM8 amino acids replaced with human's) (Sus scrofa, UniProt Q6PQZ2, G926T/L930M/L932F); test: Inside-out patch-clamp inhibition of CFTR current by Inh-172; type: cell-based
# T1 construct: expressed in transfected cells; host or cells: CHO cells, pcDNA plasmid
# Protocol: (§1) CHO cells were grown at 37 °C in Dulbecco’s modified Eagle’s medium supplemented with 10% (vol/vol) fetal bovine serum (Sigma-Aldrich, St. Louis, MO). pcDNA plasmids carrying the desired CFTR construct were transfected to CHO cells using PolyFect transfection reagent (Qiagen, Hilden, Germany) together with green fluorescence protein (GFP) cDNA (pEGFP-C3, Takara Bio, Shiga, Japan) that helps identify expression of CFTR. Cells were first incubated with the transfection reagents at 37 °C for 6-12 hours on sterile glass chips in 35-mm tissue culture dishes before transferred to 27 °C for incubation for 2–7 days. Primers for mutations were ordered from Integrated DNA Technologies (Coralville, IA) and were summarized in Supplementary Data. All CFTR mutants were prepared with QuikChange XL kit (Agilent, Santa Clara, CA) and sequenced at the DNA Core facility at University of Missouri-Columbia.
# (§2) Patch-clamp pipettes were made from borosilicate capillary glass using a two-stage vertical puller (PP-81; Narishige, Amityville, NY). The pipette tips were fire polished with a homemade microforge to yield a pipette resistance of 2–5 MΩ when filled with a pipette solution containing (in mM): 140 NMDG-Cl (N-methyl-D-glucamine-chloride), 5 CaCl2, 2 MgCl2, and 10 HEPES, pH 7.4. For recordings, transfected cells on glass chips were transferred into a continuously perfused chamber on the stage of an inverted microscope (IX51; Olympus, Tokyo, Japan) with the perfusing solution containing (in mM): 150 NMDG-Cl, 2 MgCl2, 10 EGTA, 8 Tris, and 10 HEPES, pH 7.4. The membrane patch was excised to an inside-out configuration with a seal resistance >40 GΩ. CFTR currents were recorded with an amplifier (EPC9; HEKA, Holliston, MA), filtered through an eight-pole Bessel filter (LPF-8; Warner Instruments, Hamden, CT) at 100 Hz and digitized to a computer at a sampling rate of 500 Hz with Pulse software (version 8.53; HEKA). The membrane potential was held at −30 mV. Solution exchange was achieved by a fast solution change system (SF-77B; Warner Instruments). Inh-172 was obtained from the CFTR Chemical Compound Program supported by the Cystic Fibrosis Foundation. All experiments were performed at room temperature.
# (§3) The steady state mean currents were measured in the Igor Pro software (version 8.0; WaveMetrics). The mean baseline currents were subtracted from the steady state mean currents before the data were used to determine the degrees of inhibition. The degrees of inhibition by CFTR inhibitor 172 were calculated based on the equation:1 %inhibition=1−IInh−172/I0X100% where I0 and Iinh−172 represent uninhibited and inhibited currents, respectively. The IC50 and Hill coefficients were obtained by fitting percent inhibition as a function of [Inh-172] with the Hill equation:2 %inhibition=base+(max−base)/1+xhalf/x^rate where max and base represent the […] percent inhibition by Inh-172, x represents the concentration of Inh-172, and the rate is the Hill coefficient. The estimated IC50 (xhalf) and Hill coefficients are listed in Table 1 as mean ± standard deviation. Each patch-clamp recording was made from a separate cell.
# [2] = target: T2, M348K-CFTR (Homo sapiens, UniProt P13569, M348K); test: as above; type: cell-based
# T2 construct: expressed in transfected cells; host or cells: CHO cells, pcDNA plasmid
# Protocol: as §1, §2, §3
# [3] = Visible precipitates in perfusion solution; type: physicochemical
# Source text: Point 7 (poorly deﬁned dose-response curves): The authors response would seem to explain why points may be missing from the left side of the plot (Fig 4e), but I don't think it explains their absence from the right side. The data points for the three mutants roughly deﬁne a straight line. In order to have a meaningful ﬁt that can be used to extract a reliable IC50, one needs to sample higher and lower concentrations than the authors have done.
# While I understand that there may be technical limitations that make this difficult or impossible, I think scientiﬁc rigor still has to be maintained. If the experiment cannot be done properly due to technical limitations, that is ﬁne, but low quality data should not be interpreted and presented. […]
# and include in a publication. I also still think that the way the authors are reporting signiﬁcant ﬁgures this is not good practice, though this aspect is more of a stylistic/precision issue.
# In Fig. 4e, we added 25 nM and 10 µM data points for WT-CFTR, and the newly added data […]
# added 10 µM data point for M348K-CFTR, so that for all tested mutants, the maximum [Inh-172] is 10 µM (All related ﬁgures in the main text are updated). We could not increase [Inh-172] further because precipitates were seen gushing out of our perfusion tubing at concentrations ≥ 20 µM. […]
# [4] = 100 nM Inh-172, read-out: percent inhibition of current, Mean
# [5] = 500 nM Inh-172, read-out: percent inhibition of current, Mean
# [6] = 1000 nM Inh-172, read-out: percent inhibition of current, Mean
# [7] = 1000 nM Inh-172, read-out: percent inhibition of current, individual cell
# [8] = 10000 nM Inh-172, read-out: percent inhibition of current, Mean
# [9] = 10000 nM Inh-172, read-out: percent inhibition of current, individual cell
# T1 sequence (Q6PQZ2 whole entry G926T/L930M/L932F): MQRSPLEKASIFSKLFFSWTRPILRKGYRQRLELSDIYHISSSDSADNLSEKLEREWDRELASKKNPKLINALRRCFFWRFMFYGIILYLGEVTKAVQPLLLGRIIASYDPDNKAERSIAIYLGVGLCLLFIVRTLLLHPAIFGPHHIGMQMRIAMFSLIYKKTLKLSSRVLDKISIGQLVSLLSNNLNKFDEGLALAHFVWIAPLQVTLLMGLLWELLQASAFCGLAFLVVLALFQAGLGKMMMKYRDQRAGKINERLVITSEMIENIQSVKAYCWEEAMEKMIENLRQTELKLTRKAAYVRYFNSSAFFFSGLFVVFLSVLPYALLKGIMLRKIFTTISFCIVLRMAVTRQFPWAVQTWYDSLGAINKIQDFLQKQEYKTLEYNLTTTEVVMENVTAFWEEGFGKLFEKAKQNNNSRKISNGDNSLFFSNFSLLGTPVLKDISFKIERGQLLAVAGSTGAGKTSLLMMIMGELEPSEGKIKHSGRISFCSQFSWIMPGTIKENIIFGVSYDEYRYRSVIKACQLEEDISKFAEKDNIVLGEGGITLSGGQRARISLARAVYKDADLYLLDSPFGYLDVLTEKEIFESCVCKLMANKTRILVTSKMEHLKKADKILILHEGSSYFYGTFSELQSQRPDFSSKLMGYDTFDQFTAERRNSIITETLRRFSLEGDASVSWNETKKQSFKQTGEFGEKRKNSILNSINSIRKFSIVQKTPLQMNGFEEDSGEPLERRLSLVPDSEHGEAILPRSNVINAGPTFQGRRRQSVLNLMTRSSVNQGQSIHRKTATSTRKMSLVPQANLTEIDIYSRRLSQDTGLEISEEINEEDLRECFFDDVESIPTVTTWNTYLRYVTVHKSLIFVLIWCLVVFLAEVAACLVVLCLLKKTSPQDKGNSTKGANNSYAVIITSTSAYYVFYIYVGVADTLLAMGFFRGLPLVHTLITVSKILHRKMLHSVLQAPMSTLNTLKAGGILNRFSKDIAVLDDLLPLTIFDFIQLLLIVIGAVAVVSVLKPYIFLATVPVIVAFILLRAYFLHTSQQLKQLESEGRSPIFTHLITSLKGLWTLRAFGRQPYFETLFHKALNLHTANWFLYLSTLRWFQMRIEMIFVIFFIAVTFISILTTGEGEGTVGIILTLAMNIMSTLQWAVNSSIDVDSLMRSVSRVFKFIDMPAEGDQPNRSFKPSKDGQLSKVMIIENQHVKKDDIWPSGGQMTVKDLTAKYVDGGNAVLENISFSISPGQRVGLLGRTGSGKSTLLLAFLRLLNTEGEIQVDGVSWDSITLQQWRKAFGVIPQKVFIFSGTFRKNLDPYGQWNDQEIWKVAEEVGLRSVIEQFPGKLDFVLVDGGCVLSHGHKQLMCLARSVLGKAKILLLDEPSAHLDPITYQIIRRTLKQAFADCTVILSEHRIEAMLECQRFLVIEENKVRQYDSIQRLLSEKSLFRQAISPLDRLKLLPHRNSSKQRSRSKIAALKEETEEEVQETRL
# T2 sequence (P13569 whole entry M348K): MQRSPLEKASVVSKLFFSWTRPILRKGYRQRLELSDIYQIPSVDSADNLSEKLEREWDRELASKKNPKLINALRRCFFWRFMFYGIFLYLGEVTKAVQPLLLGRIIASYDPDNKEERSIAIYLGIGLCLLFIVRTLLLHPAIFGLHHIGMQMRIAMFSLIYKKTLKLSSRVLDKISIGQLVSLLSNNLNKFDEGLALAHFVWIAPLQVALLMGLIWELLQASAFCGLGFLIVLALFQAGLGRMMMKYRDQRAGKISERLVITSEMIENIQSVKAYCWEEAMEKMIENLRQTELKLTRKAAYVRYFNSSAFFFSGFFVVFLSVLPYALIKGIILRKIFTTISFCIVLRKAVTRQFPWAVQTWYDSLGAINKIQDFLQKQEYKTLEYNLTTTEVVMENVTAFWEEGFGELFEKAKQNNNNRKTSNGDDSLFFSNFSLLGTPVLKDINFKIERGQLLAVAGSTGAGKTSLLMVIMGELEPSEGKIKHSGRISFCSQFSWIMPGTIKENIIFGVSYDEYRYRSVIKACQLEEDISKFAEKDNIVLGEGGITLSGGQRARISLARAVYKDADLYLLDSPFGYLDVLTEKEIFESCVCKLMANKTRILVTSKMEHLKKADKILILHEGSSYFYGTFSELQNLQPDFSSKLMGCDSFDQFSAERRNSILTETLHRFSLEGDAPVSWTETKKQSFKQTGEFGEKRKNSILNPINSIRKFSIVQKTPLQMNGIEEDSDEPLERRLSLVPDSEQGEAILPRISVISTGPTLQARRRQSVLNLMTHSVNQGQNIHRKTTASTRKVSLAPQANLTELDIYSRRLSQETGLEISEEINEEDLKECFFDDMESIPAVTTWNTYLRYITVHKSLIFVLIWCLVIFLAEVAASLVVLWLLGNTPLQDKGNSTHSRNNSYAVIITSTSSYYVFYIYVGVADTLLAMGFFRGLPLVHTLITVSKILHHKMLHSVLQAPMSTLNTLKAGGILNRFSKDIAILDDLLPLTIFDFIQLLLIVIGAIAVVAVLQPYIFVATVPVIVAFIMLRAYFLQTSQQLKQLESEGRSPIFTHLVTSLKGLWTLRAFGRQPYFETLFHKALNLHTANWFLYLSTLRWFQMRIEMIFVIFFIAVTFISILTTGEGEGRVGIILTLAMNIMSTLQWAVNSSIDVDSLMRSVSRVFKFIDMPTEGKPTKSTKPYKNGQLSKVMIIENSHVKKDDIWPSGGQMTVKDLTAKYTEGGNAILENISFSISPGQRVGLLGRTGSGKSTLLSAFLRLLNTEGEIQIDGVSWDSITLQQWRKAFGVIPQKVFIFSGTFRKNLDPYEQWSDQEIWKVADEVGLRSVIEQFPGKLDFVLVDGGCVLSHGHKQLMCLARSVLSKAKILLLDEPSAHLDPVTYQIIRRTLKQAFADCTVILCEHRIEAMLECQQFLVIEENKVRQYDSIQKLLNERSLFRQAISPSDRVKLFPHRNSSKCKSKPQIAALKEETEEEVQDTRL
structure (smiles),measurement,setting,value
"O=C(O)c1ccc(/C=C2\SC(=S)N(c3cccc(C(F)(F)F)c3)C2=O)cc1 [Inh-172, CFTRinh-172]","percent inhibition of current, individual cell",[1]; 25 nM Inh-172,0 and 3
same,inhibition at 0.025 µM,"[1]; 25 nM Inh-172, read-out: percent inhibition of current, Mean",1%
same,"percent inhibition of current, individual cell",[1]; 100 nM Inh-172,18 and 20 and 14 and 17
same,inhibition at 0.1 µM,[1]; [4],16.4%
same,inhibition at 0.1 µM,"[1]; 100 nM Inh-172, read-out: percent inhibition of current, individual cell",13%
same,"percent inhibition of current, individual cell",[1]; 500 nM Inh-172,63 and 60 and 56 and 33 and 23
same,inhibition at 0.5 µM,[1]; [5],47%
same,"percent inhibition of current, individual cell",[1]; 1000 nM Inh-172,53 and 44 and 63
same,inhibition at 1 µM,[1]; [6],54%
same,inhibition at 1 µM,[1]; [7],57%
same,"percent inhibition of current, individual cell",[1]; 10000 nM Inh-172,82 and 85
same,inhibition at 10 µM,[1]; [8],89%
same,inhibition at 10 µM,[1]; [9],100%
same,Hill Coefficient,[1]; p-hTM8-p,0.84 ± 0.10
same,IC50,[1]; p-hTM8-p,720 ± 90 nM
same,"percent inhibition of current, individual cell",[2]; 100 nM Inh-172,10.0 and 17.0 and 1.0 and 23.0
same,inhibition at 0.1 µM,[2]; [4],12.8%
same,"percent inhibition of current, individual cell",[2]; 250 nM Inh-172,31.0 and 36.0 and 35.0
same,inhibition at 0.25 µM,"[2]; 250 nM Inh-172, read-out: percent inhibition of current, Mean",35.3%
same,inhibition at 0.25 µM,"[2]; 250 nM Inh-172, read-out: percent inhibition of current, individual cell",39%
same,"percent inhibition of current, individual cell",[2]; 500 nM Inh-172,50.0 and 41.0 and 62.0 and 56.0 and 63.0
same,inhibition at 0.5 µM,[2]; [5],54.4%
same,"percent inhibition of current, individual cell",[2]; 1000 nM Inh-172,61.0 and 64.0 and 60.0
same,inhibition at 1 µM,[2]; [6],64.2%
same,inhibition at 1 µM,[2]; [7],68%
same,"percent inhibition of current, individual cell",[2]; 5000 nM Inh-172,94.0 and 84.0 and 81.0
same,inhibition at 5 µM,"[2]; 5000 nM Inh-172, read-out: percent inhibition of current, Mean",86.6%
same,inhibition at 5 µM,"[2]; 5000 nM Inh-172, read-out: percent inhibition of current, individual cell",90%
same,"percent inhibition of current, individual cell",[2]; 10000 nM Inh-172,89.0 and 83.0
same,inhibition at 10 µM,[2]; [8],88%
same,inhibition at 10 µM,[2]; [9],92%
same,Hill Coefficient,[2]; M348K,0.90 ± 0.10
same,IC50,[2]; M348K,520 ± 60 nM
same,concentration at which precipitates were seen,[3],≥ 20 µM
